Reference: US10343971B2, “Crotonates having use in perfumery” (GIVAUDAN SA, priority 2016, dated 2019)

Assays:
[1] = Enzymatic hydrolysis (stability) in human liver S9 fractions; type: in vitro ADME; conditions: 100 μM compound, human liver S9 0.166 mg/ml, phosphate buffer pH 7.4, active S9 fractions
Experimental: Enzymes of the nasal cavity are not easily available, but the nasal cavity contains similar enzymatic activities as found in the liver, namely carboxylesterases (J. L. Lewis, K. J. Nikula, R. Novak, A. R. Dahl, Anat Rec 1994, 239). Therefore the different compounds of examples 1-3 were compared for enzymatic hydrolysis using human liver […]. Chemicals were dissolved to a final concentration of 100 μM in a total volume of 600 μl of phosphate buffer (100 mM, pH 7.4, containing 1.15% potassium chloride and 1 mM of EDTA). S9 fractions from humans at a final level of 0.166 mg/ml were added (Corning® Gentest™ Human Liver S9 Pooled Donors, 20 mg/mL protein content, Product #452961;), Lot 22877,). As control experiment, equal levels of heat inactivated S9 fractions (incubated for 10 min at 99° C.) were added to parallel samples. The samples were incubated for different time periods and then mixed in 2 ml glass vials with 300 μl of Methyl-tert-butylether (MTBE) containing as internal standard 1 ppm of dodecane. Samples were extracted on a vortex mixer for 20 s, and then ca. 200 μl of the supernatant was transferred to conical GC vials and concentrated under a stream of nitrogen. 1 μl of these concentrated extracts were then injected with a splitless injection into an Agilent GC 6890N gas chromatograph equipped with a flame-ionisation detector. The following GC conditions were applied: Column: Rtx −5; 30 m length×0.32 mm internal diameter×0.25 μm film thickness; Carrier gas: Hydrogen; Column flow: 2 mL; Initial temperature of 60° C. held for 2 min, subsequent linear gradient with 10° C. per minute up to a temperature of 240° C. […] To determine calibration curves, dilutions of the test chemicals or of the potentially released alcohols were added to heat inactivated S9 fraction and extracted, concentrated and analysed as described above. All concentrations (in test samples and calibration curves) were determined by normalization to the internal standard. […]

[2] = test system: KeratinoSens cell line (Luciferase gene under the control of the ARE-element of the gene AKR1C2); assay: KeratinoSens assay for skin sensitization: luciferase gene induction; type: cell-based; conditions: for Concentration for 1.5-fold gene induction (EC 1.5 in μM) / Imax (fold maximal gene induction): 48 h incubation, 0.98 to 2000 μM; for Imax (fold maximal gene induction): threshold 1.5-fold; for rating of skin sensitization by the KeratinoSens assay: result in words
Experimental: Compounds were tested using the commercial KeratinoSens™ assay for skin sensitization.
(§1) The KeratinoSens™ test compares the potential skin sensitization risk of chemicals. The KeratinoSens™ cell line contains a stable insertion of a Luciferase gene under the control of the ARE-element of the gene AKR1C2 and induction of luciferase is indicative of skin sensitization potential (R. Emter, G. Ellis, A. Natsch, Toxicol. Appl. Pharmacol. 2010, 245, 281-290). The assay was performed as described by the OECD test guideline 442d. KeratinoSens cells were grown for 24 h in 96-well plates. The medium was then replaced with medium containing the test chemical and the solvent dimethylsulfoxide (DMSO) at a final level of 1%. Each compound was tested at 12 binary dilutions in the range from 0.98 to 2000 μM. Cells were incubated for 48 h with the test agents, and then luciferase activity and cytotoxicity were determined. This full procedure was repeated three times for each chemical. For each chemical in each repetition and at each concentration, the gene induction compared to DMSO controls and the wells with statistically significant induction over the threshold of 1.5 (i.e. 50% enhanced gene activity) were determined. Furthermore, the maximal fold-induction (Imax) and the EC1.5 value (concentration in μM for induction above the threshold) were calculated. Chemicals are rated as positive (i.e. likely skin-sensitizers) in the assay if the following three criteria are fulfilled:
(i) EC1.5 value is below 1000 μM.
(ii) At the lowest concentration with a gene induction above 1.5 fold, the cellular viability is above 70%.
(iii) There is an apparent overall dose-response for luciferase induction, which is similar between the repetitions.

[3] = KeratinoSens assay: cytotoxicity / cellular viability; type: cell-based; conditions: human; 48 h incubation; read-out: Concentration for 50% Cytotoxicity
Experimental: as §1, with “fulfilled: […]” for “fulfilled:”

[4] = test system: test peptide Cor1C-420 (Ac-NKKCDLF); assay: Peptide reactivity assay (kinetic variant of DPRA, LC-MS); conditions: 1 mM test chemical, 0.1 mM peptide, 37° C.
Experimental: A second method to determine allergenic potential of chemicals is the DPRA direct peptide assay (OECD TG 442c). It is based on the fact that allergenic chemicals must react with a peptide/protein in order to be immunogenic.
A peptide reactivity assay (A. Natsch, H. Gfeller, Toxicol. Sci. 2008, 106, 464-478) was conducted similarly to the DPRA assay, but including a kinetic measurement to quantify reactivity: The test chemicals were dissolved to a final concentration of 4 mM in acetonitrile and 250 μl of this solution were added to 2 ml HPLC vials. The test peptide Cor1C-420 with the sequence Ac-NKKCDLF (Genscript Inc., Piscataway, N.J., USA), was dissolved at 0.133 mM in 20 mM phosphate buffer at pH 7.5, and 750 μl of this solution were added to each test vial (final concentrations: 1 mM of test chemical and 0.1 mM of peptide in 25% acetonitrile; ratio 1:10 as in the DPRA assay). The samples were incubated for 1-24 h at 37° C. and at regular intervals they were analysed by LC-MS analysis on a VELOS PRO Mass spectrometer (Thermo SCIENTIFIC, San Jose, Calif., U.S.A.) operated in the ESI(+) mode.
Mass spectra were recorded from 200-2000 amu. […]
Two endpoints are measured with this assay:
a) Depletion of the parent peptide (FIG. 3): The mass of the protonated parent peptide is measured and the corresponding peak integrated (% depletion). […]

KeratinoSens cells = assay: KeratinoSens assay: cytotoxicity / cellular viability; type: cell-based; conditions: 48 h incubation; read-out: Concentration for 50% Cytotoxicity
Experimental: as §1, with “fulfilled: […]” for “fulfilled:”

Structure (SMILES) | cleavage (enzymatic hydrolysis of the ester) by active S9 fractions [1] | Concentration for 1.5-fold gene induction (EC 1.5 in μM) [2] | Imax (fold maximal gene induction) [2] [fold] | IC50 at 48 h [3] [µM] | rating of skin sensitization by the KeratinoSens assay [2] | peptide depletion (consumption of the parent peptide as compared to controls) ([4]; 1-24 h) [%] | lower levels of peptide adducts as compared to Damascone Delta and Damascone gamma ([4]; after 1 h) | concentration at which the luciferase gene is induced [2] [µM] | IC50 (KeratinoSens cells) [µM]
C/C=C/C(=O)OC1[C@H](C)CCC[C@H]1C (relative stereo) [Example 2, (2R*,6R*)-2,6-dimethylcyclohexyl (E)-but-2-enoate] | completely hydrolysed | – | – | – | – | – | – | – | –
C/C=C/C(=O)O[C@H]1[C@@H](C)C=CCC1(C)C (relative stereo) [Example 6a, (1S*,2S*)-2,6,6-Trimethylcyclohex-3-en-1-yl (E)-but-2-enoate] | – | No induction | 1.13 | 89.4 | – | – | – | – | –
C/C=C/C(=O)O[C@@H]1[C@H](C)CCC[C@@H]1C [Example 1, (1s*,2R*,6S*)-2,6-dimethylcyclohexyl (E)-but-2-enoate] | < 3% | No induction | – | 86.9 | non-sensitizing | < 10 | > 100 | – | –
C/C=C/C(=O)O[C@H]1[C@H](C)CCC[C@@H]1C [Example 3, (1r*,2R*,6S*)-2,6-dimethylcyclohexyl (E)-but-2-enoate] | 15% | – | – | – | – | – | – | – | –
C/C=C/C(=O)C1=C(C)CCCC1(C)C [β-Damascone, (2E)-1-(2′,6′,6′-trimethylcyclohex-1′-en-1′-yl)but-2-en-1-one, reference compound] | – | 4.5 µM | 29.8 | – | significantly sensitizing compound | – | – | 4.5 | 56.7
